Measurements: publication PMC8247900 (Clinical Pharmacology and Therapeutics, 2021)

How the values were obtained:
[1] = assay type: in vivo, human
[2] = system: CYP3A4 mRNA
[3] = system: CYP2C9 mRNA; test: Induction of CYP mRNA expression in HepaRG cells; assay type: cell-based, human; details: 5‐F control HepaRG cells, 72 hours; 300 µM 4‐MAA, 1 µM CITCO, 10 µM rifampicin
[4] = system: CYP1A2 mRNA; test: Induction of CYP mRNA expression in HepaRG cells; assay type: cell-based, human; details: 72 hours
[5] = system: CYP2B6 mRNA; test: Induction of CYP mRNA expression in HepaRG cells; assay type: cell-based, human; details: 72 hours, 300 µM 4‐MAA, 10 µM rifampicin; for CYP2B6 mRNA induction in 5‐F cells: 5‐F control HepaRG cells, 1 µM CITCO
[6] = system: CYP2C19 mRNA; test: Induction of CYP mRNA expression in HepaRG cells; assay type: cell-based, human; details: 72 hours, 300 µM 4‐MAA, 10 µM rifampicin; for CYP2C19 mRNA induction in 5‐F cells: 5‐F control HepaRG cells, 1 µM CITCO
[7] = system: CYP1A2; assay type: in vivo, human; details: male, human, plasma, oral
[8] = system: CYP2C9; test: Clinical phenotyping cocktail study: effect of metamizole on CYP2C9; assay type: in vivo, human; details: 3 g of metamizole per day for 1 week
[9] = molecular target: T1, CYP1A2 (Homo sapiens, UniProt P05177); test: Clinical phenotyping cocktail study: effect of metamizole on CYP1A2; assay type: in vivo
T1 sequence (P05177 1-516): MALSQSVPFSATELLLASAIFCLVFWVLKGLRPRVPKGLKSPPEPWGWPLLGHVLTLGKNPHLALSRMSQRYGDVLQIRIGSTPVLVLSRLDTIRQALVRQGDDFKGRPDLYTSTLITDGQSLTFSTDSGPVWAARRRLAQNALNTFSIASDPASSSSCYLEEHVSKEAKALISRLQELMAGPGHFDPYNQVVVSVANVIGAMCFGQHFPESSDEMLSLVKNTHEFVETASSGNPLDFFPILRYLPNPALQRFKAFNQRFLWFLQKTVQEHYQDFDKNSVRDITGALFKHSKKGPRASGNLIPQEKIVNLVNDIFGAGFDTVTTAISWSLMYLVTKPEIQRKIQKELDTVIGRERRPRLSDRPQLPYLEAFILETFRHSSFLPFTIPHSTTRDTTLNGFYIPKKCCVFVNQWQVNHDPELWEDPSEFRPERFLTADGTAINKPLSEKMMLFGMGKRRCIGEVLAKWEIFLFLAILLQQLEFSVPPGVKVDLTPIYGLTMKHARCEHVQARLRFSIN

[10] = system: CYP2B6; details: healthy volunteers, 1.5 g metamizole per day for 4 days; cited from earlier work
[11] = retrospective study, patients treated with metamizole; cited from earlier work
[12] = system: CYP2B6; test: Clinical phenotyping cocktail study: effect of metamizole on CYP2B6; assay type: in vivo, human; details: 3 g of metamizole per day for 1 week
[13] = system: CYP3A4; test: Clinical phenotyping cocktail study: effect of metamizole on CYP3A4; assay type: in vivo, human; details: 3 g of metamizole per day for 1 week
[14] = patients after organ transplantation; cited from earlier work
[15] = system: CYP2D6; test: Clinical phenotyping cocktail study: effect of metamizole on CYP2D6; assay type: in vivo, human
[16] = system: CYP2C19; test: Clinical phenotyping cocktail study: effect of metamizole on CYP2C19; assay type: in vivo, human; details: 3 g of metamizole per day for 1 week
[17] = system: CYP2D6 mRNA; test: Induction of CYP mRNA expression in HepaRG cells; assay type: cell-based, human; details: differentiated HepaRG cells, 72 hours; 300 µM 4‐MAA; 2 mM metformin
[18] = clinical study, 3 g of metamizole per day for 1 week
[19] = differentiated HepaRG cells, vs DMSO control

For `CC(C(=O)O)c1ccc(-c2ccc(O)cc2)c(F)c1` (centres unmarked) [4′‐hydroxyflurbiprofen], the AUC(0-inf) ([1]; male, human, plasma, oral) was 726 ng·h/mL.
With `Clc1ccc(-c2nc3sccn3c2C=NOCc2ccc(Cl)c(Cl)c2)cc1` [CITCO, 6‐(4‐chlorophenyl)imidazo[2,1‐b][1,3]thiazole‐5‐carbaldehyde O‐(3,4‐dichlorobenzyl)oxime] the “CYP3A4 mRNA induction in 5‐F cells” value [2] was “not significant”, the “CYP2C9 mRNA induction in 5‐F cells” value [3] was “not significant” and the “CYP1A2 mRNA induction in 5‐F cells” value ([4]; 5‐F control HepaRG cells, 1 µM CITCO) was “induced”. The “CYP1A2 mRNA induction in HepaRG cells lacking CAR” value ([4]; CAR‐knockout HepaRG cells, 1 µM CITCO) was “still induced”, the “CYP2B6 mRNA induction in 5‐F cells” value [5] was “induced” and the “CYP2C19 mRNA induction in 5‐F cells” value [6] was “induced”.
Work on `Cn1c(=O)c2c(ncn2C)n(C)c1=O` [Caffeine, caffeine] yielded an AUC(0-inf) ([1]; male, human, plasma, oral) of 7210 ng·h/mL.
With `O=C1Nc2ccc(Cl)cc2[C@@](C#CC2CC2)(C(F)(F)F)O1` [Efavirenz, efavirenz] the “Basal metabolic ratio in CYP2B6 NM” value ([1]; basal state, CYP2B6 *1/*1 carriers (normal metabolizers, four subjects)) was 96.3, the “Basal metabolic ratio in CYP2B6 IM” value ([1]; basal state, CYP2B6 *1/*6 carriers (intermediate metabolizers, eight subjects)) was 87.5 and the AUC(0-inf) ([1]; male, human, plasma, oral) was 3980 ng·h/mL.
In the case of `CC(C(=O)O)c1ccc(-c2ccccc2)c(F)c1` (centres unmarked) [Flurbiprofen, flurbiprofen], the AUC(0-inf) ([1]; male, human, plasma, oral) is reported as 10000 ng·h/mL.
Work on `COCCc1ccc(OCC(O)CNC(C)C)cc1` (centres unmarked) [Metoprolol, metoprolol] yielded an AUC(0-inf) ([1]; male, human, plasma, oral) of 41.4 ng·h/mL.
`Cc1ncc2n1-c1ccc(Cl)cc1C(c1ccccc1F)=NC2` [Midazolam, midazolam] gave an AUC(0-inf) ([1]; male, human, plasma, oral) of 19.7 ng·h/mL and a half-life ([1]; male, human, plasma, oral) of 2.44 h.
Compound `COc1ccc2[nH]c([S+]([O-])Cc3ncc(C)c(OC)c3C)nc2c1` (centres unmarked) [Omeprazole, omeprazole] has an AUC(0-inf) ([1]; male, human, plasma, oral) of 187 ng·h/mL.
Compound `Cn1c(=O)[nH]c2ncn(C)c2c1=O` [Paraxanthine, paraxanthine] has an AUC(0-inf) ([1]; male, human, plasma, oral) of 4680 ng·h/mL and an AUC(0-inf) [7] of 4620 ng·h/mL.
In the case of `Cc1c(N(C)CS(=O)(=O)O)c(=O)n(-c2ccccc2)n1C` [metamizole, Metamizole], the “effect on CYP2C9 activity” value [8] is reported as “weakly induced”, the “effect on CYP1A2 activity” value [9, 18] is reported as “weakly inhibited” and the “change in caffeine:paraxanthine MR” value ([9]; metamizole 3 × 1 g per day for 7 days, P = 0.0024) is reported as “significant increase”. For the same compound, the “increase in the bupropion hydroxylase activity” value [10] was 2.1 fold, the “lower sertraline plasma concentrations than patients without metamizole” value [11] was 67% and the “effect on CYP2B6 activity” value [12] was “moderate induction”. The “effect on CYP3A4 activity” value [13] was “moderate induction”, the “effect on cyclosporine blood concentrations” value [14] was “decreased” and the “effect on CYP2D6 activity” value [15, 18] was “did not alter”. The “change in the MR of metoprolol” value ([15]; metamizole 3 × 1 g per day for 7 days) was “no significant change” and the “effect on CYP2C19 activity” value [16] was “moderately”.
For `CN(C)C(=N)N=C(N)N` [metformin], the “effect on CYP1A2 mRNA” value ([4]; differentiated HepaRG cells, 300 µM 4‐MAA, 2 mM metformin) was “suppressed” and the “effect on CYP2D6 mRNA” value [17] was “not significantly affected”.
For `CO[C@H]1/C=C/O[C@@]2(C)Oc3c(C)c(O)c4c(O)c(c(/C=N/N5CCN(C)CC5)c(O)c4c3C2=O)NC(=O)/C(C)=C\C=C\[C@H](C)[C@H](O)[C@@H](C)[C@@H](O)[C@@H](C)[C@H](OC(C)=O)[C@@H]1C` [rifampicin], the “CYP2B6 mRNA induction in 5‐F cells” value [5] was “not significant”, the “increase of CYP2B6 mRNA content” value [5, 19] was 4.3 fold and the “CYP2C19 mRNA induction in 5‐F cells” value [6] was “increased”. The “increase of CYP2C19 mRNA content” value [6, 19] was 2.2 fold.
